From paper PMC10514447 (The Journal of Biological Chemistry, 2023)

Tested on: GCGR ECD
Assay: TIRF-based smFRET of GCGR ECD dynamics in the presence of ligands
Set-up: species or system human
Details: for smFRET histogram peak location (FRET efficiency), green peak / smFRET histogram peak location (FRET efficiency), red peak: 64 molecules (glucagon), 86 (MK0893)
Excerpt: We used smFRET to examine the conformational behavior of the GCGR ECD. smFRET is a well-established technique for studying the conformational dynamics of biomolecules at the single molecule level ([38], [39]), as it is sensitive to changes in distances in vitro and in cells ([40]). First, we specifically expressed and purified a GCGR with two surface-exposed cysteines at positions 49 (Cys49) of the ECD and 287 (Cys287) of the extracellular side of helix IV (Fig. S4B). These two cysteines were site-specifically labeled with a FRET donor (Alexa Fluor 555) and a FRET acceptor (Alexa Fluor 647). The efficiency of energy transfer will report the proximity between the donor and acceptor fluorophores and any changes in that distance ([41], [42]). To view receptors under smFRET, the doubly labeled GCGR was surface-immobilized on a PEG-passivated quartz microscope slide using a biotin–streptavidin interaction, as shown in Figure 1A. A biotinylated anti-FLAG antibody was used to capture the FLAG-tagged GCGR (Fig. 1A). A 532 nm laser was used to excite the donor fluorophore by creating the evanescent field from the total internal reflection of the laser beam (Fig. 1A). The emission signals from the donor and acceptor fluorophores were detected by an electron-multiplied back-illuminated CCD camera. […] A control experiment was performed to test the specific immobilization of GCGR–micelle using a biotinylated antibody to a PEG-passivated quartz surface (Fig. S5A). […] Single-molecule fluorescence time trajectories were assessed and analyzed using custom software written in MATLAB.
Single-molecule fluorescence data were recorded using a customized prism-based total internal reflection fluorescence imaging system based on an inverted IX73 microscope (Olympus) equipped with a X60 objective (Olympus, 1.49 numerical aperture, water) as described in earlier publications ([47], [48], [49]). Quartz microscope slides (G. Finkenbeiner) and coverslips (Fisher Scientific #1254588) were cleaned and passivated with polyethylene glycol (m-PEG-SVA) and 3% (w/w) biotin-PEG-SVA (Laysan Bio) to prevent nonspecific protein adsorption, as previously described ([30]). A sample chamber was prepared using double-sided tape (Scotch) on PEGylated slides and coverslips ([48]). The sample chamber was first coated with 0.02 mg/ml NeutrAvidin (ThermoFisher Scientific #PI31000) and washed with T50 buffer (10 mM Tris, pH 7.4, 50 mM NaCl). A […] biotin-conjugated anti-FLAG antibody (GenScript #A01429) was injected and incubated for 20 min, followed by washing with the imaging buffer (25 mM HEPES pH 7.5, 150 mM NaCl, 2 mM Trolox, 0.05% DDM, 0.01% CHS) to remove unbound biotinylated anti-FLAG antibody. The GCGR sample was diluted in an imaging buffer, introduced into the sample chamber, and incubated for 30 min. The sample chamber was washed extensively with an imaging buffer to remove any unbound receptors. Finally, an oxygen scavenging system, 5 mM protocatechuic acid (Sigma #37580), and 3 U/ml protocatechuate-3,4-dioxygenase (Oriental Yeast) ([50]) in the imaging buffer were applied before total internal reflection fluorescence illumination. The sample was excited at […] (CrystaLaser), and emission intensities from both donor and acceptor fluorophores were collected on an EMCCD camera (Andor Technology) with 100 ms integration time using a custom single-molecule data acquisition program ([48]). All single-molecule measurements were performed at room temperature. Single-molecule time trajectories were extracted using scripts written in IDL software (Harris Geospatial Solutions, Inc).

[1] = GCGR labeled Alexa Fluor 555/647 at Cys49 and Cys287, DDM-CHS micelle, room temperature, Gaussian fit
[2] = Gaussian fit of smFRET histogram, ligand-bound GCGR
[3] = calculated from peak centre with Förster equation, R0 51 Å, glucagon-bound GCGR

Compound | smFRET histogram peak location (FRET efficiency), green peak [1] | smFRET histogram peak location (FRET efficiency), red peak [1] | smFRET histogram peak width, green peak [2] | smFRET histogram peak width, red peak [2] | smFRET histogram relative peak area, green peak [2] [%] | smFRET histogram relative peak area, red peak [2] [%] | effect on the FRET distribution relative to apo-GCGR (saturating concentration of antagonist, histogram from 86 molecules) | smFRET histogram peak location (FRET efficiency), blue peak (GCGR labeled Alexa Fluor 555/647 at Cys49 and Cys287, DDM-CHS micelle, room temperature, Gaussian fit, 64 molecules) | smFRET histogram peak width, blue peak [2] | smFRET histogram relative peak area, blue peak [2] [%] | calculated distance, 0.53 FRET state [3] [Å] | calculated distance, 0.67 FRET state [3] [Å] | distance between the two fluorophores, 0.86 FRET state [3] [Å]
COc1ccc2cc(-c3cc(-c4cc(Cl)cc(Cl)c4)nn3[C@@H](C)c3ccc(C(=O)NCCC(=O)O)cc3)ccc2c1 [MK0893] | 0.91 | 0.75 | 0.09 | 0.19 | 47 | 53 | no effect on the FRET distribution relative to the apo-GCGR |  |  |  |  |  | 
glucagon | 0.86 | 0.67 | 0.14 | 0.11 | 59 | 17 |  | 0.53 | 0.24 | 24 | 50.0 | 45.3 | 37.7
